Some test systems named below: NCI-H226; A498; KM12; SK-MEL-2; SR; LOX IMVI; CCRF-CEM; SN12C; OVCAR-5; U-251; MOLT-4; HCT-116; ACHN; NCI-H460; SNB-19; MDA-MB-435; MDA-MB-231; MCF7; MDA-N.
What all share (assay): NCI anticancer screen, dose series, 48 h

SMILES strings stand for the structures.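 Protocol summary: plate cells (96-well), add compound at 5 concentrations, incubate 48 h, interpolate endpoints linearly. At the GI50, growth is halved.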 Calls of active or inactive are those of the source. No stated cut-off is given here; in the data, active = GI50 up to about 1.1 µM and inactive = higher. Where only a bound is given, the exact number is not on record here.

Turning to `Oc1nnc(CNc2ccc(Cl)cc2Cl)c2ccccc12`, the GI50 was 36.1 µM (inactive) with NCI-H226; 8.24 µM (inactive) with A498; 39.3 µM (inactive) in the assay on KM12; 82.8 µM (inactive) in the assay with SK-MEL-2; 32.7 µM (inactive) in the assay with SR; 46.3 µM (inactive) with LOX IMVI. Further, the GI50 in the assay on CCRF-CEM is > 100 µM (inactive); in the assay on SN12C, 34.3 µM (inactive); in the assay with OVCAR-5, 24.4 µM (inactive); in the assay with U-251 it was 18.2 µM (inactive); in the assay on MOLT-4, 31.5 µM (inactive); with HCT-116, 22.8 µM (inactive). In addition, the GI50 is 22.8 µM (inactive) with ACHN, 24.6 µM (inactive) with NCI-H460 and 28.1 µM (inactive) in the assay with SNB-19.

For `CCOC(=O)CCC(NC(=O)c1ccc(CNc2nc3ccccc3nc2C(=O)OCC)cc1)C(=O)OCC` (stereo not drawn), the GI50 with MDA-MB-435 is 3.01 µM (inactive); in the assay on NCI-H226, > 100 µM (inactive); with A498, > 100 µM (inactive); in the assay on KM12, > 100 µM (inactive); with SK-MEL-2, > 100 µM (inactive); in the assay on LOX IMVI, > 100 µM (inactive). The GI50 with CCRF-CEM is > 100 µM (inactive); in the assay on SN12C, > 100 µM (inactive); with MDA-MB-231, 24.9 µM (inactive); in the assay with OVCAR-5 it was > 100 µM (inactive); in the assay with U-251, 21.8 µM (inactive); in the assay with MOLT-4, > 100 µM (inactive). Also, the GI50 in the assay with HCT-116 was > 100 µM (inactive); in the assay with MCF7, > 100 µM (inactive); in the assay on ACHN, > 100 µM (inactive); with MDA-N it was > 100 µM (inactive); in the assay on SNB-19 it was 23.7 µM (inactive).

Take `NC(=O)N/N=C(\CC1OC(=O)c2ccccc21)c1ccc([N+](=O)[O-])cc1` (stereo not drawn): the GI50 was 82 µM (inactive) in the assay with A498; 32.5 µM (inactive) in the assay on KM12; 19.4 µM (inactive) in the assay on SK-MEL-2; 32.7 µM (inactive) with SR; 17 µM (inactive) in the assay with LOX IMVI; 31.3 µM (inactive) in the assay with CCRF-CEM. Besides, the GI50 in the assay on SN12C is 31 µM (inactive); with U-251 it was 17.5 µM (inactive); in the assay with MOLT-4, 27.7 µM (inactive); in the assay on HCT-116 it was 28.7 µM (inactive); in the assay with ACHN, 62.1 µM (inactive); with NCI-H460 it was 39.9 µM (inactive). In the assay on SNB-19, the GI50 is 20.7 µM (inactive).

On to `CCc1cc(Cc2cc(Cl)c(NC(=O)C(=O)C3NC(=O)NC3=O)c(CC)c2)cc(Cl)c1NC(=O)C(=O)C1NC(=O)NC1=O` (stereo not drawn), for which the GI50 with NCI-H226 is > 100 µM (inactive); in the assay with A498, > 100 µM (inactive); in the assay on KM12, > 100 µM (inactive); with SK-MEL-2, > 100 µM (inactive); with SR, 37.2 µM (inactive); with LOX IMVI it was 31.8 µM (inactive). In addition, the GI50 in the assay on CCRF-CEM was 34.5 µM (inactive); in the assay on SN12C, 50.8 µM (inactive); with OVCAR-5 it was > 100 µM (inactive); in the assay on U-251 it was 17.1 µM (inactive); in the assay with MOLT-4, 66.5 µM (inactive); in the assay with HCT-116, 31.3 µM (inactive). In addition, the GI50 is 94.4 µM (inactive) in the assay on ACHN, 36.1 µM (inactive) in the assay on NCI-H460 and 36.9 µM (inactive) with SNB-19.

`O=C(CSCC(=O)N/N=C/c1cccc(O)c1)N/N=C/c1cccc(O)c1`: the GI50 in the assay on MDA-MB-435 was > 100 µM (inactive); in the assay on NCI-H226, 82.4 µM (inactive); in the assay with A498 it was > 100 µM (inactive); in the assay with KM12 it was > 100 µM (inactive); in the assay on SK-MEL-2 it was > 100 µM (inactive); in the assay with SR, > 100 µM (inactive). Also, the GI50 with SN12C, with MDA-MB-231, in the assay with OVCAR-5, with U-251, in the assay with MOLT-4 and with HCT-116 was > 100 µM (inactive) in each case. For the same compound, the GI50 in the assay with MCF7, with ACHN, in the assay with NCI-H460 and in the assay on SNB-19 was > 100 µM (inactive) each time.

Turning to `O=S1(=O)COc2ccccc2-c2ncncc21`, the GI50 with NCI-H226, in the assay on A498, in the assay with KM12, with SR, with LOX IMVI and in the assay with CCRF-CEM was > 100 µM (inactive) in each case. The GI50 in the assay on SN12C, in the assay on OVCAR-5, with U-251, in the assay on MOLT-4, with HCT-116 and in the assay on ACHN was > 100 µM (inactive) in each case. Moreover, the GI50 with NCI-H460 and with SNB-19 was > 100 µM (inactive) in each case.

In the case of `CN(C)/C=N\c1ccn(CCO)c(=O)n1`, the GI50 in the assay with NCI-H226, in the assay on A498, with KM12, in the assay on SK-MEL-2, in the assay with SR and in the assay on LOX IMVI was > 100 µM (inactive) throughout. Moreover, the GI50 in the assay on CCRF-CEM, in the assay on SN12C, in the assay on OVCAR-5, in the assay with U-251, with MOLT-4 and in the assay on HCT-116 was > 100 µM (inactive) throughout. In addition, the GI50 in the assay with ACHN, with NCI-H460 and in the assay with SNB-19 was > 100 µM (inactive) in each case.

As to `COC(=O)C1Cc2c(n(Cc3ccccc3)c3ccccc23)C(CCC(=O)O)N1C(C)C` (stereo not drawn), the GI50 in the assay with NCI-H226, with A498, in the assay on KM12, with SK-MEL-2, with SR and with LOX IMVI was > 100 µM (inactive) throughout. Also, the GI50 in the assay on CCRF-CEM, in the assay with SN12C, in the assay on OVCAR-5, in the assay with U-251, with MOLT-4 and with HCT-116 was > 100 µM (inactive) throughout. The GI50 in the assay on ACHN, in the assay on NCI-H460 and in the assay with SNB-19 was > 100 µM (inactive) in each case.

`CCCCCCCCCCC(O)[C@H]1CCC(C2CC[C@H]([C@H](O)CCCCCCCCCCC(O)CC3=CC(C)OC3=O)O2)O1` (stereo partly drawn): the GI50 in the assay with NCI-H226 was 1.11 µM (active); in the assay on A498, 2.17 µM (inactive); in the assay on KM12, 1.47 µM (inactive); in the assay with SK-MEL-2 it was 1.53 µM (inactive); in the assay on SR it was 1.9 µM (inactive); with LOX IMVI, 1.38 µM (inactive). Besides, the GI50 is 1.94 µM (inactive) in the assay with CCRF-CEM; 2.25 µM (inactive) in the assay with SN12C; 1.61 µM (inactive) with MDA-MB-231; 3.08 µM (inactive) in the assay with OVCAR-5; 3.03 µM (inactive) with U-251; 2.47 µM (inactive) in the assay on MOLT-4. In addition, the GI50 was 1.94 µM (inactive) with HCT-116; 1.21 µM (inactive) in the assay on MCF7; 1.24 µM (inactive) in the assay with ACHN; 1.04 µM (active) with NCI-H460; 1.82 µM (inactive) with SNB-19.

On to `Cc1ccc(S(=O)(=O)N2CCCCC2CCO)cc1` (stereo not drawn), for which the GI50 in the assay with NCI-H226, in the assay on A498, in the assay on KM12, in the assay with SK-MEL-2, in the assay on SR and in the assay with CCRF-CEM was > 100 µM (inactive) each time. The GI50 in the assay with SN12C, in the assay with OVCAR-5, with U-251, in the assay with MOLT-4, in the assay with HCT-116 and in the assay on ACHN was > 100 µM (inactive) each time. For the same compound, the GI50 in the assay on NCI-H460 and in the assay with SNB-19 was > 100 µM (inactive) throughout.

Consider `O=C(Nc1c(O)[nH]c(=S)[nH]c1=O)c1ccc2ccccc2n1`, for which the GI50 in the assay with NCI-H226, with A498, in the assay on SR, with LOX IMVI, in the assay with CCRF-CEM and with SN12C was > 100 µM (inactive) each time. Also, the GI50 in the assay with U-251, in the assay with MOLT-4, with HCT-116, in the assay on ACHN, with NCI-H460 and in the assay with SNB-19 was > 100 µM (inactive) each time.

In the case of `CCC(Oc1ccc(OC)c2c1C(=O)CCC2)C(=O)O` (stereo not drawn), the GI50 in the assay on NCI-H226, in the assay on A498, with KM12, in the assay with SK-MEL-2, in the assay on SR and in the assay with LOX IMVI was > 100 µM (inactive) each time. In addition, the GI50 in the assay with CCRF-CEM, in the assay on SN12C, in the assay on OVCAR-5, in the assay with U-251, in the assay with MOLT-4 and with ACHN was > 100 µM (inactive) throughout. The GI50 in the assay on NCI-H460 and with SNB-19 was > 100 µM (inactive) each time.

With `CN/C(=N\n1cnnc1)OC`, the GI50 in the assay on MDA-MB-435, with A498, with KM12, in the assay with SK-MEL-2, in the assay on SR and with CCRF-CEM was > 100 µM (inactive) each time. Moreover, the GI50 in the assay with MDA-MB-231, in the assay on OVCAR-5, in the assay on U-251, in the assay with MOLT-4, in the assay with HCT-116 and with MCF7 was > 100 µM (inactive) in each case. Besides, the GI50 in the assay with ACHN, with NCI-H460, in the assay on MDA-N and in the assay on SNB-19 was > 100 µM (inactive) each time.

The values are drawn from ChEMBL document CHEMBL1201862, “PubChem BioAssay data set” (2004).
